Laboratory results from PMC7738508, “A therapeutic combination of two small molecule toxin inhibitors provides broad preclinical efficacy against viper snakebite” (Nature Communications, 2020).
“And” between values parts separate entries of the source, which are not always exact repeats. Equal values may be shown once. Read-outs that look alike come from different tables or passages of the source.

Tests used:
[1] = test system: SVMP bioactivity of the four active venoms (E. ocellatus, E. carinatus, B. asper, B. arietans); assay: in vitro kinetic fluorogenic SVMP assay, viper venoms overall; type: biochemical; details: four active venoms; marimastat 150 nM to 150 µM, batimastat […] and 150 nM
Protocol: (§1) The SVMP assay measuring metalloproteinase activity and the plasma assay measuring coagulation in the presence or absence of venoms and inhibitors were performed as previously described. The SVMP assay kinetically measured cleavage of a quenched fluorogenic substrate (ES010, R&D Biosystems) by venom in the presence or absence of inhibitors.
(§2) Briefly, 10 µl of the substrate (supplied as a 6.2 mM stock) was used per 5 ml reaction buffer (150 mM NaCl, 50 mM Tris-Cl pH 7.5). Reactions consisted of 10 µl of venom ± inhibitors in PBS and 90 µl of substrate. Venoms were used at 1 µg/reaction and final inhibitor concentrations ranged from 150 µM to 150 nM. Samples were preincubated for 30 min at 37 °C and pipetted in triplicate into 384-well plates (Greiner). Thereafter, data was collected on an Omega FLUOstar (BMG Labtech) instrument at an excitation wavelength of 320 nm and emission wavelength of 405 nm at 25 °C for 1 h. The areas under the curve (AUCs) in the 0–40 min interval were calculated for each sample using MARS data analysis software v3.31 (BMG Labtech); this time point was chosen as the time where all fluorescence curves had reached a plateau (maximum fluorescence). For comparing venom-only samples, the means of at least three independent experimental runs for each condition, expressed as AUCs (n ≥ 3), were plotted at each inhibitor concentration with standard error of the mean (SEM). To determine inhibitor efficacy, the AUCs for each of the samples that consisted of venom + inhibitors were transformed and expressed as percentages of the venom-only sample (where the venom was 100%). The negative control (PBS-only) was also expressed relative to the venom, and the variation in background was presented as an interval delineated by the lowest and highest values in the PBS-only samples across concentrations and inhibitors for a specific venom.

[2] = test system: Bitis arietans venom SVMP activity; assay: fluorogenic SVMP assay; type: biochemical; details: independent repeats
Protocol: as §1, §2

[3] = test system: Bothrops asper venom SVMP activity; assay: fluorogenic SVMP assay; type: biochemical; details: independent repeats
Protocol: as §1, §2

[4] = test system: Echis carinatus venom SVMP activity; assay: fluorogenic SVMP assay; type: biochemical; details: inhibitor 15 µM, independent repeats
Protocol: as §1, §2

[5] = test system: Echis ocellatus venom SVMP activity; assay: fluorogenic SVMP assay; type: biochemical; details: independent repeats
Protocol: as §1, §2

[6] = test system: procoagulant activity of Bothrops asper venom (citrated bovine plasma); assay: plasma clotting assay; type: biochemical; details: Bothrops asper venom 100 ng, independent repeats
Protocol: (§3) We used a previously developed plasma clotting assay[35] to measure venom-induced coagulation. Briefly, 100 ng of each venom was incubated at 37 °C for 30 min in the presence or absence of inhibitors (150 µM to 150 nM final concentrations). The final reaction consisted of 10 µl venom ± inhibitors in PBS, 20 µl 20 mM CaCl2, and 20 µl citrated bovine plasma (VWR). The samples were pipetted in triplicate into 384-well plates, and absorbance monitored at 595 nm for 2 h at 25 °C on an Omega FLUOstar instrument. We calculated the maximum clotting velocity of each of the curves as per clot waveform analysis, by calculating the maximum of the first derivative. The means of at least three independent experimental runs for each condition were plotted at each inhibitor concentration with SEMs.

[7] = test system: procoagulant activity of Echis ocellatus venom (citrated bovine plasma); assay: plasma clotting assay; type: biochemical; details: Echis ocellatus venom 100 ng, independent repeats
Protocol: as §3

[8] = test system: coagulopathic activity of Daboia russelii venom (citrated bovine plasma); assay: plasma clotting assay; type: biochemical; design: key to maximum clotting velocity: max of first derivative of A595 clot curve (max clotting velocity); details: for maximum clotting velocity: Daboia russelii venom 100 ng, independent repeats
Protocol: as §3

E. ocellatus venom = assay: in vivo preincubation model of envenoming (i.v.); design: species or system CD-1 mice
Protocol: All animal experiments were conducted using protocols approved by the Animal Welfare and Ethical Review Boards of the Liverpool School of Tropical Medicine and the University of Liverpool, and performed in specific pathogen-free conditions under licensed approval (PPL #4003718 and #P5846F90) of the UK Home Office and in accordance with the Animal [Scientific Procedures] Act 1986 and institutional guidance on animal care. All experimental animals (18–20 g [4–5 weeks old], male, CD-1 mice, Charles River, UK) were housed in groups of five with environmental enrichment, water and food ad libitum and their health monitored daily during acclimatization. The experimental design was based upon 3R-refined WHO-recommended protocols[28],[41], with animals randomized and observers being blinded to the experimental condition. The median lethal doses (venom LD50) used for E. ocellatus (Nigeria), E. carinatus (India), B. asper (Costa Rica), D. russelii (Sri Lanka) and B. arietans (Nigeria) venoms were previously determined[25],[41],[44],[45].
All experimental doses were prepared to a volume of 200 µl in PBS and incubated at 37 °C for 30 min prior to their intravenous injection via the tail vein. Animals were monitored for 6 h, and euthanized via rising concentrations of CO2 upon observation of previously defined humane end points that are predicators of lethality (e.g., seizure, pulmonary distress, paralysis, hemorrhage)[28]. Deaths, time of death, and survivors were recorded; where death/time of death actually represents the implementation of euthanasia based on defined humane end points.
For all experimental animals described above, blood samples were collected via cardiac puncture immediately post-euthanasia. Plasma was separated by centrifugation at 400 × g for 10 min and stored at −80 °C. We assessed the levels of thrombin-antithrombin complexes (TAT) and soluble thrombomodulin using mouse ELISA Kits (ab137994 and ab209880, Abcam), following the manufacturer’s protocol. All available plasma samples (some were unobtainable via cardiac puncture due to extensive internal hemorrhage) were assessed if the time of death within the group varied, whereas three samples were randomly chosen if the time of death was the same (e.g., either very rapid death within 2 min, or survival until the end of the experiment [360 min or 24 h]). The resulting data was plotted as the median of duplicate measurements for each animal and is presented with standard deviations (SDs).

[9] = cited from earlier work
[10] = design: method as in PMID 29735645; details: cited from earlier work

## CNC(=O)[C@@H](NC(=O)[C@H](CC(C)C)[C@H](O)C(=O)NO)C(C)(C)C [marimastat]
[1]
  neutralization of SVMP bioactivity: complete in vitro neutralization
[2]; inhibitor 15 µM
  SVMP activity, percentage of the venom-only sample: 15.1667% and 15.8748% and 15.6727%
[2]; inhibitor 150 µM
  SVMP activity, percentage of the venom-only sample: 14.1911% and 15.0205% and 14.976%
[3]; inhibitor 15 µM
  SVMP activity, percentage of the venom-only sample: 33.0579% and 34.1722% and 57.3186%
[3]; inhibitor 150 µM
  SVMP activity, percentage of the venom-only sample: 29.6154% and 33.7275% and 43.4535%
[4]
  SVMP activity, percentage of the venom-only sample: 11.481% and 22.9494% and 21.3373%
[5]; inhibitor 15 µM
  SVMP activity, percentage of the venom-only sample: 19.3205% and 20.8108% and 21.1203%
[5]; inhibitor 150 µM
  SVMP activity, percentage of the venom-only sample: 18.1136% and 19.6025% and 15.3204%
[6]; inhibitor 15 µM
  maximum clotting velocity: 0.02338 and 0.02609 and 0.02203
[6]; inhibitor 150 µM
  maximum clotting velocity: 0.02696 and 0.02551 and 0.02522
[7]; inhibitor 15 µM
  maximum clotting velocity: 0.0225 and 0.02559 and 0.02899
[7]; inhibitor 150 µM
  maximum clotting velocity: 0.02088 and 0.02471 and 0.02435
[8]; D. russelii venom, high doses
  effect on clotting after complete neutralization of SVMP activity: revealed clear venom anticoagulant effects
[8]; inhibitor 15 µM
  maximum clotting velocity: 0.01941 and 0.01206 and 0.01103
[8]; inhibitor 150 µM
  maximum clotting velocity: 0.005735 and 0.003235
E. ocellatus venom; 45 µg E. ocellatus venom preincubated with 60 µg inhibitor/mouse, i.v.
  animals surviving the 6 h experiment (groups of five): four
E. ocellatus venom; 45 µg E. ocellatus venom preincubated with 60 µg of each drug, i.v., 6 h
  protection against venom-induced lethality: prolonged the survival
E. ocellatus venom; plasma after euthanasia, E. ocellatus venom + 60 µg of each drug, venom-only mean 1127.3, normal mice 10.2–15.9
  thrombin-antithrombin (TAT) levels, range in group: 231.2 to 267.9 ng/mL
[9]; 28 days, patients with advanced pancreatic cancer
  daily doses with no notable side effects: 75 mg
[9]
  single doses with no notable side effects: up to 800 mg
[9]; for 6.5 days
  bidaily doses with no notable side effects: 200 mg
[9]; no reference given
  oral bioavailability: 70%
[9]; oral
  half-life: 8 to 10 h
  time to peak plasma concentrations post-administration: 1.5 to 3 h
[9]; vs parenteral administration of batimastat
  oral bioavailability: excellent oral bioavailability
[10]
  solubility compared with batimastat: increased solubility
